Results reported in BigSolDB 2.1.

N[C@H](Cc1c[nH]cn1)C(=O)O
solubility (mole fraction)
Conditions | 293.15 K | 298.15 K | 303.15 K | 308.15 K | 313.15 K | 318.15 K | 323.15 K | 328.15 K | 333.15 K
in 1,4-dioxane | 0.0072 | 0.00864 | 0.0102 | 0.0117 | 0.0135 | 0.0152 | 0.0179 | 0.0206 | 0.0245
in DMF | 0.154 | 0.176 | 0.201 | 0.228 | 0.258 | 0.29 | 0.326 | 0.365 | 0.417
in DMSO | 0.0171 | 0.0199 | 0.0232 | 0.0267 | 0.0308 | 0.0353 | 0.0403 | 0.0459 | 0.0543
in NMP | 0.0656 | 0.0752 | 0.0859 | 0.0977 | 0.111 | 0.127 | 0.14 | 0.157 | 0.178
in cyclohexane | 0.000445 | 0.000565 | 0.000714 | 0.000897 | 0.00111 | 0.00138 | 0.00169 | 0.00216 | 0.00252
in ethanol | 0.000253 | 0.000329 | 0.000433 | 0.000557 | 0.000724 | 0.000915 | 0.0012 | 0.00145 | 0.00181
in ethylene glycol | 0.00215 | 0.00263 | 0.0032 | 0.00385 | 0.00459 | 0.00559 | 0.00654 | 0.00774 | 0.00944
in isobutanol | 0.000546 | 0.000681 | 0.00085 | 0.00105 | 0.00129 | 0.00156 | 0.00201 | 0.0024 | 0.00286
in isopropanol | 0.000369 | 0.00047 | 0.000598 | 0.000759 | 0.000945 | 0.00117 | 0.00146 | 0.00177 | 0.00228
in methanol | 0.00019 | 0.000252 | 0.00033 | 0.000431 | 0.000562 | 0.000712 | 0.000904 | 0.00119 | 0.00156
in n-butanol | 0.0007 | 0.000865 | 0.00105 | 0.00128 | 0.00155 | 0.00187 | 0.00224 | 0.00263 | 0.0033
in n-propanol | 0.000484 | 0.00061 | 0.00076 | 0.000941 | 0.00115 | 0.00142 | 0.00172 | 0.00208 | 0.00263
in water | 0.00458 | 0.00506 | 0.00556 | 0.00619 | 0.00686 | 0.00765 | 0.00878 | 0.00971 | 0.0118
